Legend:
A. muciniphila = assay: Anaerobic fecal cultures with 1% prebiotic, 16S rDNA quantification; assay type: cell-based, human; settings: in most of the cultures
Experimental: (§1) Fecal samples derived from 12 healthy human subjects were cultivated in the presence or absence of 1% prebiotic. 16S rDNA sequences corresponding to Bifidobacterium, Bacteroides and Akkermansia muciniphila were quantified. Data are representative of three independent experiments. Graphs show the mean±s.e.m. *P<0.05, **P<0.005, ***P<0.001, ****P<0.0001 by one-way ANOVA with Tukey's correction.
(§2) Anaerobic fecal cultures. […] Anaerobic cultures (9% H2, 81% N2) were grown statically for 3-4 days at 37° C. and grown to approximate saturation.
(§3) Chemically-defined medium (CDM). CDM contains 50 mM HEPES, 2.2 mM KH2PO4, 10 mM Na2HPO4, 60 mM NaHCO3, 4 mM of each amino acid, except leucine (15 mM), 10 mL ATCC, Trace Mineral Supplement. CDM contained nucleoside bases (100 mg/L), inosine, xanthine, adenine, guanine, cytosine, thymidine and uracil (400 mg/L). CDM contained choline (100 mg/L), ascorbic acid (500 mg/L), lipoic acid (2 mg/L), hemin (1.2 mg/L) and myo-inositol (400 mg/L). Resazurin (1 mg/L) was added to visually monitor dissolved oxygen. The pH of the media was adjusted to 7.4.
(§4) Fecal samples derived from 12 healthy, vegetarian human subjects were cultivated in a chemically-defined medium the presence or absence of 1% prebiotic. Anaerobic cultures (9% H2, 81% N2) were grown statically for 3-4 days at 37° C. and grown to approximate saturation.

Bifidobacterium spp. = assay: as above; assay type: cell-based, human; settings: in two of these cultures
Experimental: as §1, §2, §3, §4

fecal microbiota = assay: 16S sequencing of fecal microbiota, MC-38 colon cancer model; assay type: in vivo, C57BL/6 mice
Experimental: Bacterial DNA extraction and 16S library preparation. […] Mouse fecal pellets were frozen on dry ice, and stored at −80° C. Bacterial DNA was extracted using the QIAmp Fast DNA Stool Mini Kit (Qiagen). To ensure efficient cell lysis, a 5-min bead-beating step using a Mini-Beadbeater-16 was included (Biospec Products, OK, USA). Library preparation for the Illumina MiSeq platform was performed by amplification of the V3-V4 region of the bacterial 16S ribosomal DNA gene using
C. Adapter and barcode sequences for dual indices were used as described by Illumina. PCR clean up steps were performed with QIAquick 96-PCR Clean up kit (Qiagen, Germany), and library quantification was performed using a KAPA Library Quantification Kit for Illumina platforms (KAPA Biosystems, MA, USA). An Experion Automated Gel Electrophoresis System (Bio-Rad, CA, USA) was used to measure the DNA concentration and purity of the pooled libraries. The 16S libraries were sequenced at Novagene (Beijing, China) and the SBP sequencing Core.
16S sequencing data processing. The original FASTQ files from Illumina 250 basepair paired-end sequencing of the samples were processed using a novel 16S amplicon sequencing pipeline HiMap (http://github.com/taolonglab/himap; BioRxiv 565572). The output of HiMap is Operational Strain Unit (OSU) which contains one or more bacterial strains that best match the 16S sequence and cannot be further distinguished. The percentage similarity between the 16S sequence and the aligned region of 16S rRNA genes of the strains in the OSU is indicated. OSUs mapped to the same strains are grouped together (adding read counts) if percentage similarities are within 3%. Read counts are converted into relative abundance as described in HiMap. Log 10-transformed relative abundances were used for comparisons between samples under different experimental conditions.
The effects of inulin on the microbiota were evaluated in a colon cancer model. […] MC-38 mouse colorectal cancer cells (1×10^6) were inoculated, and diets were continued after inoculation.
(§5) P-values were calculated using paired one-tail Wilcoxon rank sum test.
as §5

[1] = system: SW1 (syngeneic NRAS mutant melanoma) cells; assay: SW1 melanoma growth with mucin and/or inulin; assay type: in vivo, C3H/HeOuJ mice; settings: 3% mucin in drinking water and/or 15% inulin diet from 14 days prior to inoculation
Text: FIG. 17A Growth of SW1 mouse melanoma cells in C3H/HeOuJ mice that were fed with 0 or 3% mucin in drinking water and/or a diet enriched with 15% inulin, starting 14 days prior to (and continued after) tumor inoculation (n=10). FIG. 17B. […] Graphs show the mean±s.e.m. *P<0.05, **P<0.005,***P<0.001, ****P<0.0001 by two-way ANOVA with Tukey's correction.
Animals and tumor models. All experimental animal procedures were approved by the Institutional Animal Care and Use Committee of Sanford Burnham Prebys Medical Discovery Institute (SBP) and complied with all relevant ethical regulations for animal testing and research. C57BL/6 mice were obtained from Sanford Burnham Prebys Medical Discovery Institute. […] C3H/HeOuJ mice were purchased from Jackson laboratories. Male 6-8-week-old mice were used for all experiments. […] All mice were fed an autoclaved chow diet ad libitum (LabDiet 5K67, Purina Foods). […] Mouse selection for experiments was not formally randomized or blinded. For tumor growth experiments, mice were injected subcutaneously (s.c.) with 1×10^6 tumor cells. Tumor size was measured twice a week for calculation of tumor volume. Tumors were weighed at the time of excision.
Mucin and inulin treatment. For mucin treatment, C57BL/6 mice were subjected to control or water supplemented with 3% mucin (Lee Biosolutions) prior to (14 days) and during tumor inoculation. […]

[2] = B: 14 days after mucin feeding, A (prior to feeding) 0.001, p A vs B 0.001
[3] = C: 20 days post-tumor cell inoculation with mucin feeding
[4] = C: 20 days post-tumor cell inoculation with mucin feeding, p B vs C 0.006
[5] = C: 20 days post-tumor cell inoculation with mucin feeding, p B vs C 0.007
[6] = C: 20 days post-tumor cell inoculation with mucin feeding, p B vs C 0.011

Substance: mucin
- relative abundance of A. muciniphila (A. muciniphila): increased
- Bifidobacterium spp. (Bifidobacterium spp.): not
- Abundance of phylotype group Clostridium cellulolyticum (93) (fecal microbiota; [2]): 0.055
- Abundance of phylotype group Dubosiella newyorkensis (93) (fecal microbiota; [2]): 0.044
- Abundance of phylotype group Staphylococcus saprophyticus (100) (fecal microbiota; B: 14 days after mucin feeding, A (prior to feeding) 0.001, p A vs B 0.005): 0.057
- Abundance of phylotype group Corynebacterium ammoniagenes (99) (fecal microbiota; B: 14 days after mucin feeding, A (prior to feeding) 0.001, p A vs B 0.006): 0.054
- Abundance of phylotype group Olsenella profusa (92) (fecal microbiota; B: 14 days after mucin feeding, A (prior to feeding) 0.001, p A vs B 0.023): 0.118
- Abundance of phylotype group Christensenella timonensis (88) / Anaerotruncus colihominis (88) (fecal microbiota; B: 14 days after mucin feeding, A (prior to feeding) 0.001, p A vs B 0.025): 0.010
- Abundance of phylotype group Gracilibacter thermotolerans (89) / Christensenella massiliensis (88) (fecal microbiota; B: 14 days after mucin feeding, A (prior to feeding) 0.001, p A vs B 0.036): 0.006
- Abundance of phylotype group Bifidobacterium pseudolongum (90) (fecal microbiota; B: 14 days after mucin feeding, A (prior to feeding) 0.001, p A vs B 0.049): 0.025
- Abundance of phylotype group Ruminococcus lactaris (97) / Clostridium oroticum (97) (fecal microbiota; B: 14 days after mucin feeding, A (prior to feeding) 0.004, p A vs B 0.0005): 0.062
- Abundance of phylotype group Clostridium hylemonae (98) / Muricomes intestini (98) / Clostridium oroticum (98) XIVa (fecal microbiota; B: 14 days after mucin feeding, A (prior to feeding) 0.005, p A vs B 0.040): 0.029
- Abundance of phylotype group Desulfovibrio desulfuricans (95) (fecal microbiota; B: 14 days after mucin feeding, A (prior to feeding) 0.008, p A vs B 0.035): 0.338
- Abundance of phylotype group Clostridium cellulovorans (89) / Christensenella massiliensis (88) (fecal microbiota; B: 14 days after mucin feeding, A (prior to feeding) 0.009, p A vs B 0.048): 0.045
- Abundance of phylotype group Eubacterium dolichum (93) (fecal microbiota; B: 14 days after mucin feeding, A (prior to feeding) 0.011, p A vs B 0.025): 0.106
- Abundance of phylotype group Clostridium viride (96) / Intestinimonas butyriciproducens (96) / Pseudoflavonifractor capillosus (95) (fecal microbiota; B: 14 days after mucin feeding, A (prior to feeding) 0.013, p A vs B 0.001): 0.062
- Abundance of phylotype group Roseburia faecis (95) (fecal microbiota; B: 14 days after mucin feeding, A (prior to feeding) 0.013, p A vs B 0.009): 0.124
- Abundance of phylotype group Ihubacter massiliensis (98) / E. timonensis (96) (fecal microbiota; B: 14 days after mucin feeding, A (prior to feeding) 0.014, p A vs B 0.002): 0.146
- Abundance of phylotype group Clostridium xylanolyticum (98) / C. aerotolerans (97) (fecal microbiota; B: 14 days after mucin feeding, A (prior to feeding) 0.014, p A vs B 0.008): 0.088
- Abundance of phylotype group Harryflintia acetispora (95) / Anaerotruncus colihominis (93) (fecal microbiota; B: 14 days after mucin feeding, A (prior to feeding) 0.017, p A vs B 0.043): 0.040
- Abundance of phylotype group Staphylococcus lentus (100) (fecal microbiota; B: 14 days after mucin feeding, A (prior to feeding) 0.024, p A vs B 0.030): 0.349
- Abundance of phylotype group Roseburia intestinalis (95) / Ruminococcus faecis (95) / E. rectale (95) (fecal microbiota; B: 14 days after mucin feeding, A (prior to feeding) 0.029, p A vs B 0.003): 0.113
- Abundance of phylotype group Eubacterium dolichum (92) (fecal microbiota; B: 14 days after mucin feeding, A (prior to feeding) 0.045, p A vs B 0.00003): 0.291
- Abundance of phylotype group Murimonas intestini (97) / Clostridium celerecrescens (96) XIVa (fecal microbiota; B: 14 days after mucin feeding, A (prior to feeding) 0.104, p A vs B 0.009): 0.300
- Abundance of phylotype group Anaerotaenia torta (96) / C. xylanolyticum (95) (fecal microbiota; B: 14 days after mucin feeding, A (prior to feeding) 0.168, p A vs B 1 × 10^−6): 0.421
- Abundance of phylotype group Olsenella profusa (95) (fecal microbiota; B: 14 days after mucin feeding, A (prior to feeding) 0.180, p A vs B 0.004): 4.883
- Abundance of phylotype group Clostridium cocleatum (99) (fecal microbiota; B: 14 days after mucin feeding, A (prior to feeding) 0.253, p A vs B 0.011): 7.822
- Abundance of phylotype group Muribaculum intesinale (92) (fecal microbiota; B: 14 days after mucin feeding, A (prior to feeding) 6.008, p A vs B 4 × 10^−7): 17.058
- Abundance of phylotype group Bifidobacterium pseudolongum (90) (fecal microbiota; [3]): 0.006
- Abundance of phylotype group Clostridium cellulolyticum (93) (fecal microbiota; [3]): 0.055
- Abundance of phylotype group Clostridium cellulovorans (89) / Christensenella massiliensis (88) (fecal microbiota; [3]): 0.038
- Abundance of phylotype group Clostridium cocleatum (99) (fecal microbiota; [3]): 3.099
- Abundance of phylotype group Clostridium hylemonae (98) / Muricomes intestini (98) / Clostridium oroticum (98) XIVa (fecal microbiota; [3]): 0.030
- Abundance of phylotype group Desulfovibrio desulfuricans (95) (fecal microbiota; [3]): 0.533
- Abundance of phylotype group Eubacterium dolichum (92) (fecal microbiota; [3]): 0.462
- Abundance of phylotype group Eubacterium dolichum (93) (fecal microbiota; [3]): 0.279
- Abundance of phylotype group Gracilibacter thermotolerans (89) / Christensenella massiliensis (88) (fecal microbiota; [3]): 0.020
- Abundance of phylotype group Murimonas intestini (97) / Clostridium celerecrescens (96) XIVa (fecal microbiota; [3]): 0.462
- Abundance of phylotype group Olsenella profusa (92) (fecal microbiota; [3]): 0.068
- Abundance of phylotype group Olsenella profusa (95) (fecal microbiota; [3]): 3.256
- Abundance of phylotype group Ruminococcus lactaris (97) / Clostridium oroticum (97) (fecal microbiota; [3]): 0.060
- Abundance of phylotype group Dubosiella newyorkensis (93) (fecal microbiota; C: 20 days post-tumor cell inoculation with mucin feeding, p B vs C 0.001): 0.005
- Abundance of phylotype group Corynebacterium ammoniagenes (99) (fecal microbiota; [4]): 0.002
- Abundance of phylotype group Harryflintia acetispora (95) / Anaerotruncus colihominis (93) (fecal microbiota; [4]): 0.172
- Abundance of phylotype group Clostridium viride (96) / Intestinimonas butyriciproducens (96) / Pseudoflavonifractor capillosus (95) (fecal microbiota; [5]): 0.113
- Abundance of phylotype group Muribaculum intesinale (92) (fecal microbiota; [5]): 11.857
- Abundance of phylotype group Roseburia intestinalis (95) / Ruminococcus faecis (95) / E. rectale (95) (fecal microbiota; [5]): 0.407
- Abundance of phylotype group Roseburia faecis (95) (fecal microbiota; [6]): 0.555
- Abundance of phylotype group Staphylococcus saprophyticus (100) (fecal microbiota; [6]): 0.006
- Abundance of phylotype group Christensenella timonensis (88) / Anaerotruncus colihominis (88) (fecal microbiota; C: 20 days post-tumor cell inoculation with mucin feeding, p B vs C 0.028): 0.027
- Abundance of phylotype group Staphylococcus lentus (100) (fecal microbiota; C: 20 days post-tumor cell inoculation with mucin feeding, p B vs C 0.034): 0.033
- SW1 tumor growth [1]: attenuated tumor growth
